Experiments:
[1] = tested on: WiDr-R cells (SF3B1 R1074H mutation); conditions: cited from earlier work
[2] = tested on: Panc 05.04 (mt SF3B1 cells); assay: Cell viability assay (CellTiter-Glo), Panc 05.04; assay type: cell-based; conditions: 72 hr
Experimental: (§1) Cells (WiDr and Panc05.04 obtained from ATCC) were seeded in 96-well plates, with 2000 cells/1004/well, and incubated overnight. Spent media was removed, and fresh, media containing 9 different concentrations of compound (1004/well) were added, with DMSO concentration from compound stock solution adjusted to be 0.1%. Each compound treatment was done in duplicate or triplicate at each concentration.
(§2) Another plate with cells seeded was dedicated as a time zero (Tz) plate, to which was added 0.1% DMSO in media (1004/well) followed by CellTiter-Glo® reagent (Promega Corporation, Madison, Wis.) (504/well) for ATP measurement as a surrogate of cell viability. Average value from measurement of multiple wells of this plate is used as Tz.
(§3) Compound-treated plates were incubated for 72 hr at 37° C. Then, CellTiter-Glo® reagent (504/well) was added and ATP was measured. […]
(§4) Percentage growth inhibition/Percentage viability was calculated as: [(Ti−Tz)/(C−Tz)]×100 for concentrations for which Ti>/=Tz [(Ti−Tz)/Tz]×100 for concentrations for which Ti<Tz. *time zero (Tz), control growth (C), and test growth in the presence of compound (Ti) Percentage growth inhibition/Percentage viability are plotted versus compound concentration to determine Emax. […]

[3] = tested on: WiDr cells (wildtype SF3B1); assay: Cell viability assay (CellTiter-Glo), WiDr; assay type: cell-based; conditions: Homo sapiens, 72 hr, ATP (CellTiter-Glo)
Experimental: as §1, §2, §3, §4

[4] = tested on: WiDr-R cells (SF3B1 R1074H mutation); assay: Cell viability assay, resistant WiDr-R counter-screen; assay type: cell-based; conditions: 72 hr, ATP (CellTiter-Glo)
[5] = tested on: splicing of Ad2 pre-mRNA in HeLa nuclear extract; assay: In vitro splicing (IVS) biochemical assay; conditions: 90 min, 30° C.
Experimental: Biotin-labeled pre-mRNA of an adenovirus type 2 construct with a deletion of intervening sequence (Ad2) (Berg, M. G., et al. 2012 Mol. Cell Bio., 32(7):1271-83) was prepared by in vitro transcription. The Ad2 construct containing Exon 1 (41 nucleotides), Intron (231 nucleotides), and Exon 2 (72 nucleotides) was generated by gene synthesis and cloned into the EcoRI and XbaI sites of pGEM®-3Z vector (Promega) by Genewiz® (South Plainfield, N.J.). The plasmid was then linearized by XbaI digestion and purified. In vitro transcription and purification of transcribed pre-mRNA were performed using the MEGAscript® T7 transcription kit (Invitrogen™, Life Technologies™, Grand Island, N.Y.) and MEGAclear™ transcription clean-up kit (Invitrogen™, Life Technologies™, Grand Island, N.Y.), respectively, following the manufacturer's instructions. […]
In vitro splicing assay was performed at 30° C. in 254 reaction mixtures containing 95 μg HeLa nuclear extract (Promega Corporation, Madison, Wis.), 47 nM Ad2 pre-mRNA, 25U RNasin RNase inhibitor (Promega Corporation, Madison, Wis.), 1×SP buffer (0.5 mM ATP, 20 mM creatine phosphate, 1.6 mM MgCl2), and compounds in DMSO (with 1% final concentration of DMSO). […] The amount of spliced RNA was quantified by measuring the band fluorescent intensity using LI-COR Image Studio software. […]

[6] = Solid state stability study; assay type: physicochemical
Experimental: Solid state stability studies were carried out on crystalline Form 1 under the following conditions: • Stored at 25° C. for 7 and 14 days • Stored at 40° C./75% RH (open) for 7 and 14 days • Stored at 60° C. for 7 and 14 days

Question: Which “Growth inhibition in WiDr-R cells (resistance)” value [1] does the source give for pladienolide B here?
Answer: resistant

Question: With `CCC(O)C(C)C1OC1CC(C)(O)/C=C/C=C(\C)C1OC(=O)CC(O)CCC(C)(O)C(OC(=O)N2CCN(C3CCCCCC3)CC2)/C=C/C1C` (stereo not drawn) [Compound E7107, (8E,12E,14E)-7-((4-cycloheptylpiperazin-1-yl)carbonyl)oxy-3,6,16,21-tetrahydroxy-6,10,12,16,20-pentamethyl-18,19-epoxytricosa-8,12,14-trien-11-olide] as the compound, how does the “Growth inhibition in WiDr-R cells (resistance)” value [1] read?
Answer: resistant

Question: For `C/C(=C\C=C\[C@@H](C)c1ccccn1)[C@H]1OC(=O)C[C@H](O)CC[C@@](C)(O)[C@@H](OC(=O)N2CCN(C)CC2)/C=C/[C@@H]1C` [Compound 1, (2S,3S,6S,7R,10R,E)-7,10-dihydroxy-3,7-dimethyl-12-oxo-2-((R,2E,4E)-6-(pyridin-2-yl)hepta-2,4-dien-2-yl)oxacyclododec-4-en-6-yl 4-methylpiperazine-1-carboxylate], which GI50 ([2]; ATP (CellTiter-Glo)) is on record?
Answer: 0.0327 µM

Question: And the Emax ([2]; negative value indicates cellular lethality)?
Answer: -66.1%

Question: What about the GI50 [3] of the same compound?
Answer: 0.0318 µM

Question: What about the GI50 [4] of the same compound?
Answer: > 1 µM

Question: And the IC50 [5]?
Answer: 1.33 µM

Question: For `C/C(=C\C=C\[C@@H](C)c1ccccn1)[C@H]1OC(=O)C[C@H](O)CC[C@@](C)(O)[C@@H](OC(=O)N2CCN(C)CC2)/C=C/[C@@H]1C` [crystalline Form 1, (2S,3S,6S,7R,10R,E)-7,10-dihydroxy-3,7-dimethyl-12-oxo-2-((R,2E,4E)-6-(pyridin-2-yl)hepta-2,4-dien-2-yl)oxacyclododec-4-en-6-yl 4-methylpiperazine-1-carboxylate], which “Degradation on storage (solid state stability)” value ([6]; 25° C., 40° C./75% RH (open), 60° C., each for 7 and 14 days) is on record?
Answer: No significant degradation

Question: And the “Change in crystallinity (XRPD and TGA-DSC)” value ([6]; 40° C./75% RH (open) for 14 days)?
Answer: no change in crystallinity
